The IC50 is the concentration that inhibits the measured activity by half.

The results in this text go back to patent publication US12617770B2, “IRAK inhibitor and preparation method therefor and use thereof” (WUHAN CREATERNA SCIENCE AND TECHNOLOGY CO., LTD., priority 2019, dated 2026).

Data set [1] is described as follows: Plasma protein binding (PPB), equilibrium dialysis, human plasma. The format is in vitro ADME. Particulars: 5 h at 37° C., read-out: Plasma protein binding (Bound %) Human (converted). The method, then:
(§1) The experiment is intended to determine plasma protein binding (PPB) data of the test compounds disclosed herein.
(§2) In the PPB experiment, the final administration matrix contained the test compound or a reference compound with a concentration of 1 μM and DMSO with a content of 0.2%.
(§3) Collecting samples in initial time: 25 μL of the matrix containing the compound was added into a blank 96-well collecting plate, and the plate was stored at −20° C.
(§4) An equilibrated dialysis device was prepared. 100 μL of buffer was added to the receiving side of the equilibrium dialysis plate. Then 100 μL of the administration matrix containing the compound or the reference compound was added into an administration side of the equilibrium dialysis plate. The prepared equilibrium dialysis plate was placed in a 37° C. shaker to be shaken for 5 h at 60 rpm.
(§5) Sample was prepared at the end of cultivation (5 h): Preparing sample in the receiving side: 25 μL of sample from a receiving side was taken out and placed in a 96-well sample collecting plate, and 25 μL of a corresponding matrix (blank plasma) was added for mixing: 200 μL of ACN containing an internal standard was added, shaken for 10 minutes at 600 rpm, and centrifuged at 5594 g for 15 min.
(§6) Preparing sample in the administration side: 25 μL of the sample containing test compound and reference compound from the administration side was taken out and 25 μL of a blank buffer was added for mixing; 200 μL of ACN containing an internal standard was added, shaken for 10 minutes at 600 rpm, and centrifuged at 5594 g for 15 min.
(§7) Preparing sample in initial time: the sample containing test compound and reference compound was re-melted at 37° C. in initial time and then mixed with the corresponding matrix (blank buffer) in the same volume (25 μL); 200 μL of ACN containing an internal standard was added, shaken for 10 minutes at 600 rpm, and centrifuged at 5594 g for 15 min.
(§8) After all the samples were centrifuged, 50 μL of a supernatant was taken and added into 50 μL of ultrapure water for mixing, and the samples were sent to liquid chromatography-mass spectrometry.
Background: In equilibrium dialysis free small molecules cross a membrane that holds back macromolecules.

The target in another data set is T1, human IRAK4 (Homo sapiens, UniProt Q9NWZ3).
T1 construct: purchased Cama (so in the source)
T1 sequence (Q9NWZ3 1-460): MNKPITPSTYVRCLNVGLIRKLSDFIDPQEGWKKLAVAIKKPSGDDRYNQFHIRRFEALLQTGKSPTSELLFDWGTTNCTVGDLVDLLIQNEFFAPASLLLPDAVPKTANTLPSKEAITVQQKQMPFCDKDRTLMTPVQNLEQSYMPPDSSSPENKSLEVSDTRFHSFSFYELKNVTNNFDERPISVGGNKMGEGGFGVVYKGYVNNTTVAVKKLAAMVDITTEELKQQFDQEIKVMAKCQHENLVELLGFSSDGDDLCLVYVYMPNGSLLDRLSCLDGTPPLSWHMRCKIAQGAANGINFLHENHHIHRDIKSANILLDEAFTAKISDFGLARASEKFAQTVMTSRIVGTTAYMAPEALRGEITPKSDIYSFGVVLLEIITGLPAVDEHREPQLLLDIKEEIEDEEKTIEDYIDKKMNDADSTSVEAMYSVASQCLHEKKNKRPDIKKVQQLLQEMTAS
The data set can be described thus: IRAK4 MSA (Mobility-Shift Assay) at Km concentration of ATP. The format is biochemical. Particulars: GST-IRAK4 1 nM, ATP 37 μM (Km); read-out: IC50 for inhibiting human IRAK4 activity. The protocol: A recombinant fusion protein of N-terminal GST (glutathione-S-transferase) and human IRAK4 was used as enzyme (GST-IRAK4, kinase IRAK4 (Cama, CAT No. 09-145)) at a final concentration of 1 nM; ATP (Sigma. CAT No. A7699-1G) was at a final concentration of 37 μM; • the substrates used for the kinase reaction were 5-FAM (5-carboxyfluorescein)-labeled polypeptide (5-FAM-[…]-COOH) and substrate peptide FAM-P8 (GL Biochem, CAT No. 112396) at final concentrations of 5 μM.
In this assay, 500 μM stock solutions of the compounds were prepared in 100% DMSO, and serially 4-fold diluted to the 10th concentration gradient with 100% DMSO, followed by a 10-fold dilution in the compound buffer (50 mM HEPES, pH 7.5, 0.00015% Brij-35) to give intermediate dilutions of the compounds at a final concentration of 10 μM−0.04 nM containing 10% DMSO. 5 μL of the intermediate dilution was transferred into a black 384-well plate.
IRAK4 was diluted to 2.5 nM in the kinase buffer (50 mM HEPES, pH 7.5, 0.00015% Brij-35, 2 mM DTT). 10 μL of the IRAK4 dilution was transferred to the 384-well plate and co-incubated with the compound for 10-15 min.
The substrate and ATP were diluted to 12.5 μM and 92.5 μM with reaction buffer (50 mM HEPES, pH 7.5, 0.00015% Brij-35, 10 mM MgCl2), respectively. 10 μL of the dilution was transferred to a 384-well plate and incubated at 28° C. for 1 h. The reaction was terminated by adding 25 μL of 50 mM EDTA to the 384-well plate.
The inhibition rate of IRAK4 by the compounds was calculated by measuring the rate of phosphorylated substrate using a Caliper EZ Reader (PerkinElmer) and the IC50 was calculated by XL-fit software. […] In particular, some exemplary compound activity values are as follows: […]

Data set [2] in a line: Plasma protein binding (PPB), equilibrium dialysis, mouse plasma. The format is in vitro ADME. Particulars: 5 h at 37° C., read-out: Plasma protein binding (Bound %) Mouse (converted). The method, then:
as §1, §2, §3, §4, §5, §6, §7, §8

The next data set concerns the target T2, CYP3A4 (Homo sapiens, UniProt P08684).
T2 construct: The test compounds were co-incubated with the human liver microsomes and a probe substrate midazolam (CYP3A4); tissue Corning (USA); host or cells: mixed (pooled) human liver microsomes
The data set can be described thus: CYP450 inhibition in human liver microsomes, CYP3A4-M. The format is in vitro ADME. Particulars: pooled (mixed) human liver microsomes, probe midazolam; human liver microsomes, midazolam; read-out: CYP3A4 IC50. The method, then:
This study was intended to investigate the inhibitory effect of the test compounds on 5 major enzymes in human P450 superfamily, CYP1A2, 2C9, 2C19, 2D6 and 3A4-M. The mixed human liver microsomes used in this assay were purchased from Corning (USA). The test compound (compound 14) was co-incubated at 7 concentrations with human liver microsomes and five probe substrates (phenacetin for CYP1a2, diclofenac for CYP2C9, mephenytoin for CYP2C19, dextromethorphan for CYP2D6, midazolam for CYP3A4-M, mixed). The reaction was initiated by adding coenzyme NADPH, and terminated by adding acetonitrile containing internal standard. After the proteins were precipitated, the supernatant was centrifuged. The characteristic metabolites in the supernatant (acetaminophen for CYP1A2, 4-hydroxydiclofenac for CYP2C9, 4-hydroxymephenytoin for CYP2C19, dextrorphan for CYP2D6, 1-hydroxymidazolam for CYP3A4-M) were analyzed by LC-MS/MS. The influence of the test compounds on production of the characteristic metabolites was finally analyzed on the basis of the data obtained. A selective inhibitor (ketoconazole for CYP3A4-M) may be used as positive control. All samples were tested in duplicate.

T2 sequence (P08684 whole entry): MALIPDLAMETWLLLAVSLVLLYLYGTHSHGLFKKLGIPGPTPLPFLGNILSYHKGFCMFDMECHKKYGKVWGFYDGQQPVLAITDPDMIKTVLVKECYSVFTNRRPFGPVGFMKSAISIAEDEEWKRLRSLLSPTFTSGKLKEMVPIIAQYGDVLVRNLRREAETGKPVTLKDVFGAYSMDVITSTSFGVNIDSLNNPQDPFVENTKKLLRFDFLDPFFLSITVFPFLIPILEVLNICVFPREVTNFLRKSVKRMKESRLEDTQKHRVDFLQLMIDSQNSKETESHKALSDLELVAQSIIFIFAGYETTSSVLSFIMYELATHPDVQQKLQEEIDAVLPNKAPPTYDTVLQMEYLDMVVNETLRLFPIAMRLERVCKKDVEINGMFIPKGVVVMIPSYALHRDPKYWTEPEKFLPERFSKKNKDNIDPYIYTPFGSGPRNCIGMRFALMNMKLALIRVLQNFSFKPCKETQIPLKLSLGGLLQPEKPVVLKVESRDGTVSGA

For the compound `COc1cc2nn([C@H]3CC[C@](C)(O)CC3)cc2cc1NC(=O)c1cccc(C)[n+]1[O-]` [Compound 001, 2-((2-((1r,4r)-4-hydroxy-4-methylcyclohexyl)-6-methoxy-2H-indazol-5-yl)carbamoyl)-6-methylpyridine 1-oxide], the results for the fraction unbound at 5 h, 1 μM in data set [1] and in data set [2] were 0.19 and 0.201, respectively. The results for the IC50 at human IRAK4 and at CYP3A4 were 6 nM and > 30000 nM, respectively.

In the case of `COc1cc2nn(CCC(C)(C)O)cc2cc1NC(=O)c1cccc(C)[n+]1[O-]` [Compound 163, 2-((2-(3-hydroxy-3-methylbutyl)-6-methoxy-2H-indazol-5-yl)carbamoyl)-6-methylpyridine 1-oxide], the fraction unbound at 5 h, 1 μM in data set [1] is 0.183; in data set [2], 0.162. In addition, the IC50 at human IRAK4 is 23 nM; on CYP3A4, > 30000 nM.
